PubChem BioAssay AID624376 (Broad Institute, 2012)
Results filed as inconclusive are left out. Active and inactive are the calls of the source. How the calls were made is not given here.

Assay: inhibitors of EBV LMP1 NF-kappaB signaling – cell-based, luciferase reporter, luminescence, dry powder, set 2, dose response (AID 624376)
Settings: LMP1-induced NF-kappaB luciferase reporter cells, luminescence; at 16 µM (top of the series)

Row | Structure (SMILES) | activity change, negative = inhibition
1 | Cc1noc(C)c1S(=O)(=O)Nc1ccc2c(c1)C(=O)N([C@H](C)CO)C[C@H](C)[C@H](CN(C)Cc1ccc(C(F)(F)F)cc1)OCCCC[C@H](C)O2 | -0.443% (inactive)

Same assay, conditions: LMP1-induced NF-kappaB luciferase reporter cells, luminescence; at 30 µM (top of the series)

Row | Structure (SMILES) | activity change, negative = inhibition
2 | C[C@H](NC(=O)C[C@@H]1C=C[C@H](NC(=O)Cc2ccccn2)[C@H](CO)O1)c1ccccc1 | -8.89% (inactive)
3 | Cc1noc(C)c1S(=O)(=O)Nc1ccc2c(c1)C(=O)N([C@@H](C)CO)C[C@H](C)[C@H](CN(C)Cc1ccc(C(F)(F)F)cc1)OCCCC[C@@H](C)O2 | 2.6% (inactive)

Same assay, conditions: LMP1-induced NF-kappaB luciferase reporter cells, luminescence; at 35 µM (top of the series)

Row | Structure (SMILES) | activity change, negative = inhibition
4 | C[C@@H]1CN([C@H](C)CO)C(=O)Cc2cc(NC(=O)Cc3ccccc3)ccc2O[C@H]1CN(C)Cc1ccc(C(F)(F)F)cc1 | -5.26% (inactive)
5 | Cc1noc(C)c1S(=O)(=O)Nc1ccc2c(c1)C(=O)N([C@H](C)CO)C[C@@H](C)[C@@H](CN(C)Cc1ccc(C(F)(F)F)cc1)OCCCC[C@H](C)O2 | 16.2% (inactive)
6 | COc1ccccc1CNC(=O)C[C@H]1C[C@@H]2c3cc(NC(=O)CN(C)C)ccc3O[C@@H]2[C@@H](CO)O1 | -6.3% (inactive)
7 | Cc1noc(C)c1S(=O)(=O)Nc1ccc2c(c1)C(=O)N([C@@H](C)CO)C[C@@H](C)[C@@H](CN(C)Cc1ccc(C(F)(F)F)cc1)OCCCC[C@H](C)O2 | 13% (inactive)
8 | C[C@H](CO)N1C[C@H](C)[C@@H](CN(C)Cc2ccc(C(F)(F)F)cc2)Oc2ccc(NC(=O)Cc3ccccc3)cc2CC1=O | 17.6% (inactive)
9 | C[C@H]1CN([C@@H](C)CO)C(=O)Cc2cc(NC(=O)Cc3ccccc3)ccc2O[C@@H]1CN(C)Cc1ccc(C(F)(F)F)cc1 | -3.24% (inactive)
10 | C[C@H](NC(=O)C[C@H]1C=C[C@@H](NC(=O)Cc2ccccn2)[C@H](CO)O1)c1ccccc1 | 0.463% (inactive)
11 | Cc1noc(C)c1S(=O)(=O)Nc1ccc2c(c1)C(=O)N([C@H](C)CO)C[C@@H](C)[C@H](CN(C)Cc1ccc(C(F)(F)F)cc1)OCCCC[C@H](C)O2 | -0.786% (inactive)
12 | COc1cccc(S(=O)(=O)N(C)C[C@@H]2Oc3cc(C4=CCCCC4)ccc3S(=O)(=O)N([C@@H](C)CO)C[C@H]2C)c1 | 4.81% (inactive)
13 | Cc1noc(C)c1S(=O)(=O)Nc1ccc2c(c1)C(=O)N([C@@H](C)CO)C[C@@H](C)[C@@H](CN(C)Cc1ccc(C(F)(F)F)cc1)OCCCC[C@@H](C)O2 | -7.77% (inactive)
14 | COc1cccc(S(=O)(=O)N(C)C[C@H]2Oc3cc(C4=CCCCC4)ccc3S(=O)(=O)N([C@H](C)CO)C[C@H]2C)c1 | -4.73% (inactive)
15 | O=C(C[C@@H]1C[C@@H]2c3cc(NS(=O)(=O)c4ccc(F)cc4)ccc3O[C@@H]2[C@H](CO)O1)NC1CCCCC1 | 7.3% (inactive)
16 | O=C(C[C@@H]1C[C@H]2c3cc(NS(=O)(=O)c4ccc(F)cc4)ccc3O[C@H]2[C@@H](CO)O1)NC1CCCCC1 | 2.38% (inactive)
17 | C[C@H](NC(=O)C[C@H]1C=C[C@H](NC(=O)Cc2ccccn2)[C@H](CO)O1)c1ccccc1 | 3.9% (inactive)
18 | C[C@H]1CN([C@@H](C)CO)C(=O)c2c(c3ccccc3n2C)-c2ccccc2CO[C@H]1CN(C)C(=O)Nc1ccc(F)cc1 | 1.49% (inactive)
19 | Cc1noc(C)c1S(=O)(=O)Nc1ccc2c(c1)C(=O)N([C@H](C)CO)C[C@@H](C)[C@H](CN(C)Cc1ccc(C(F)(F)F)cc1)OCCCC[C@@H](C)O2 | -6% (inactive)
20 | C[C@@H]1CN([C@@H](C)CO)C(=O)Cc2cc(NC(=O)Cc3ccccc3)ccc2O[C@@H]1CN(C)Cc1ccc(C(F)(F)F)cc1 | 5.83% (inactive)
21 | C[C@@H](NC(=O)C[C@@H]1C=C[C@H](NC(=O)Cc2ccccn2)[C@H](CO)O1)c1ccccc1 | 1.6% (inactive)
22 | C[C@H](CO)N1C[C@H](C)[C@H](CN(C)Cc2ccc(C(F)(F)F)cc2)Oc2ccc(NC(=O)Cc3ccccc3)cc2CC1=O | 3.81% (inactive)
23 | Cc1noc(C)c1S(=O)(=O)Nc1ccc2c(c1)C(=O)N([C@H](C)CO)C[C@H](C)[C@@H](CN(C)Cc1ccc(C(F)(F)F)cc1)OCCCC[C@@H](C)O2 | -11.7% (inactive)
24 | O=C(C[C@@H]1C[C@@H]2c3cc(NC(=O)c4cccnc4)ccc3O[C@@H]2[C@H](CO)O1)NCC(F)(F)F | -8.21% (inactive)
25 | COC(=O)C[C@H]1C[C@H]2c3cc(NC(=O)CN(C)C)ccc3O[C@H]2[C@H](CO)O1 | -9.49% (inactive)
26 | C[C@@H](NC(=O)C[C@H]1C=C[C@H](NC(=O)Cc2ccccn2)[C@@H](CO)O1)c1ccccc1 | 2.05% (inactive)
27 | CO[C@@H]1CN(C)C(=O)c2ccc(NC(C)=O)cc2OC[C@@H](C)N(Cc2ccccc2F)C[C@H]1C | 0.725% (inactive)
28 | C[C@@H](NC(=O)C[C@@H]1C=C[C@@H](NC(=O)Cc2ccccn2)[C@@H](CO)O1)c1ccccc1 | -0.171% (inactive)
29 | C[C@@H](NC(=O)C[C@@H]1C=C[C@H](NC(=O)Cc2ccccn2)[C@@H](CO)O1)c1ccccc1 | -7.31% (inactive)
30 | C[C@H](NC(=O)C[C@@H]1C=C[C@@H](NC(=O)Cc2ccccn2)[C@@H](CO)O1)c1ccccc1 | 2.64% (inactive)
31 | COc1ccccc1C(=O)Nc1ccc2c(c1)C(=O)N(C)[C@@H]1CC[C@H](CC(=O)NCCc3ccncc3)O[C@H]1CO2 | -9.84% (inactive)

Row | Structure (SMILES) | activity change, negative = inhibition
32 | Cc1noc(C)c1S(=O)(=O)Nc1ccc2c(c1)C(=O)N([C@H](C)CO)C[C@H](C)[C@@H](CN(C)Cc1ccc(C(F)(F)F)cc1)OCCCC[C@H](C)O2 | 27.4% (inactive)
33 | C[C@H](NC(=O)C[C@@H]1C=C[C@@H](NC(=O)Cc2ccccn2)[C@H](CO)O1)c1ccccc1 | 4.21% (inactive)
34 | CO[C@H]1CN(C)C(=O)c2ccc(NC(=O)C3CC3)cc2OC[C@H](C)N(C(=O)c2ccccn2)C[C@H]1C | -14.8% (inactive)
35 | C[C@@H]1CN([C@H](C)CO)C(=O)c2c(c3ccccc3n2C)-c2ccccc2CO[C@H]1CN(C)C(=O)Nc1ccc(F)cc1 | -0.608% (inactive)
36 | C[C@H](NC(=O)C[C@@H]1C=C[C@H](NC(=O)Cc2ccccn2)[C@@H](CO)O1)c1ccccc1 | 5.95% (inactive)
37 | C[C@@H](NC(=O)C[C@H]1C=C[C@@H](NC(=O)Cc2ccccn2)[C@@H](CO)O1)c1ccccc1 | -14% (inactive)
38 | Cc1noc(C)c1S(=O)(=O)Nc1ccc2c(c1)C(=O)N([C@H](C)CO)C[C@H](C)[C@H](CN(C)Cc1ccc(C(F)(F)F)cc1)OCCCC[C@@H](C)O2 | 16.1% (inactive)
39 | C[C@H]1CN([C@@H](C)CO)C(=O)Cc2cc(NC(=O)Cc3ccccc3)ccc2O[C@H]1CN(C)Cc1ccc(C(F)(F)F)cc1 | 18.5% (inactive)
40 | O=C(Cc1ccccn1)NCC[C@H]1CC[C@@H](NC(=O)Nc2ccc(Cl)cc2)[C@@H](CO)O1 | 0.728% (inactive)
41 | O=C(Cc1ccccn1)NCC[C@@H]1CC[C@H](NC(=O)Nc2ccc(Cl)cc2)[C@H](CO)O1 | -9.97% (inactive)
42 | Cc1noc(C)c1S(=O)(=O)Nc1ccc2c(c1)C(=O)N([C@H](C)CO)C[C@@H](C)[C@@H](CN(C)Cc1ccc(C(F)(F)F)cc1)OCCCC[C@@H](C)O2 | -6.08% (inactive)
43 | C[C@H](NC(=O)C[C@H]1C=C[C@@H](NC(=O)Cc2ccccn2)[C@@H](CO)O1)c1ccccc1 | -0.671% (inactive)
44 | O=C(C[C@H]1C[C@@H]2c3cc(NS(=O)(=O)c4ccc(F)cc4)ccc3O[C@@H]2[C@H](CO)O1)NC1CCCCC1 | -0.993% (inactive)
45 | CC(C)(C)[S@@](=O)N1Cc2cc(C(=O)NCCc3ccncc3)nc(-c3cccc(-c4cccnc4)c3)c2[C@H]1CCO | -10.1% (inactive)
46 | O=C(Cc1ccccn1)NCC[C@@H]1CC[C@@H](NC(=O)Nc2ccc(Cl)cc2)[C@@H](CO)O1 | -0.581% (inactive)
47 | O=C(Cc1ccccn1)NCC[C@@H]1CC[C@@H](NC(=O)Nc2ccc(Cl)cc2)[C@H](CO)O1 | 0.177% (inactive)
48 | O=C(Cc1ccccn1)NCC[C@H]1CC[C@@H](NC(=O)Nc2ccc(Cl)cc2)[C@H](CO)O1 | -2.95% (inactive)
49 | O=C(Cc1ccccn1)NCC[C@H]1CC[C@H](NC(=O)Nc2ccc(Cl)cc2)[C@@H](CO)O1 | 4.16% (inactive)
50 | C[C@@H]1CN([C@@H](C)CO)C(=O)c2c(c3ccccc3n2C)-c2ccccc2CO[C@@H]1CN(C)C(=O)Nc1ccc(F)cc1 | 6.54% (inactive)
51 | Cc1noc(C)c1S(=O)(=O)Nc1ccc2c(c1)C(=O)N([C@@H](C)CO)C[C@H](C)[C@@H](CN(C)Cc1ccc(C(F)(F)F)cc1)OCCCC[C@H](C)O2 | -1.9% (inactive)
52 | Cc1noc(C)c1S(=O)(=O)Nc1ccc2c(c1)C(=O)N([C@@H](C)CO)C[C@H](C)[C@H](CN(C)Cc1ccc(C(F)(F)F)cc1)OCCCC[C@H](C)O2 | -10.2% (inactive)
53 | CN(C)c1ccc2c(c1)[C@@H]1C[C@@H](CC(=O)NCc3ccc(Oc4ccccc4)cc3)O[C@@H](CO)[C@@H]1O2 | -26.2% (inactive)
54 | C[C@@H]1CN([C@@H](C)CO)C(=O)c2c(c3ccccc3n2C)-c2ccccc2CO[C@H]1CN(C)C(=O)Nc1ccc(F)cc1 | -7.17% (inactive)
55 | C[C@@H](NC(=O)C[C@H]1C[C@@H]2c3cc(NC(=O)c4cccnc4)ccc3O[C@@H]2[C@@H](CO)O1)c1ccccc1 | 6.76% (inactive)
56 | C[C@@H](NC(=O)C[C@H]1C=C[C@H](NC(=O)Cc2ccccn2)[C@H](CO)O1)c1ccccc1 | -2.05% (inactive)
57 | C[C@H](NC(=O)C[C@H]1C=C[C@H](NC(=O)Cc2ccccn2)[C@@H](CO)O1)c1ccccc1 | 10.7% (inactive)
58 | COC(=O)C[C@@H]1C[C@@H]2c3cc(NC(=O)CN(C)C)ccc3O[C@@H]2[C@@H](CO)O1 | -4.49% (inactive)
